Measured values as given in ChEMBL document CHEMBL1201862, “PubChem BioAssay data set” (2004).
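96-well plates; 48 h exposure; 5 concentrations. Endpoints by linear interpolation between flanking doses. Not reached: highest tested concentration assigned. GI50 marks 50% less growth.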 The source made the active and inactive calls. Rule as the data show it: active = GI50 up to about 1.1 µM and inactive = higher.

Key:
Assay in all cases: growth of human tumour cells (NCI), 48 h
UO-31 = test system: UO-31
786-0 = test system: 786-0
RXF 393 = test system: RXF 393
UACC-257 = test system: UACC-257
BT-549 = test system: BT-549
SN12C = test system: SN12C
NCI-H23 = test system: NCI-H23
U-251 = test system: U-251
T47D = test system: T47D
Malme-3M = test system: Malme-3M
IGROV-1 = test system: IGROV-1
MDA-MB-435 = test system: MDA-MB-435
DU-145 = test system: DU-145
CAKI-1 = test system: CAKI-1
M14 = test system: M14
RPMI-8226 = test system: RPMI-8226
SK-MEL-28 = test system: SK-MEL-28
A549 = test system: A549
K562 = test system: K562
MCF7 = test system: MCF7
SK-OV-3 = test system: SK-OV-3
HL-60 = test system: HL-60
OVCAR-8 = test system: OVCAR-8
OVCAR-3 = test system: OVCAR-3
HCT-116 = test system: HCT-116
CCRF-CEM = test system: CCRF-CEM
NCI-H460 = test system: NCI-H460
KM12 = test system: KM12
NCI-H522 = test system: NCI-H522
TK-10 = test system: TK-10
HCT-15 = test system: HCT-15
SNB-19 = test system: SNB-19
MDA-MB-231 = test system: MDA-MB-231
HCC 2998 = test system: HCC 2998
SK-MEL-2 = test system: SK-MEL-2
A498 = test system: A498
COLO 205 = test system: COLO 205
OVCAR-4 = test system: OVCAR-4
HOP-62 = test system: HOP-62
NCI-H226 = test system: NCI-H226
UACC-62 = test system: UACC-62
SW-620 = test system: SW-620
Hs-578T = test system: Hs-578T
MDA-N = test system: MDA-N
MOLT-4 = test system: MOLT-4
OVCAR-5 = test system: OVCAR-5
SF-268 = test system: SF-268
EKVX = test system: EKVX
LOX IMVI = test system: LOX IMVI
SF-295 = test system: SF-295
SR = test system: SR
HOP-92 = test system: HOP-92
ACHN = test system: ACHN
NCI/ADR-RES = test system: NCI/ADR-RES
PC-3 = test system: PC-3
SK-MEL-5 = test system: SK-MEL-5
HT-29 = test system: HT-29
SF-539 = test system: SF-539
SNB-75 = test system: SNB-75

COc1cc(C2S/C(=C/c3ccccc3)C(=O)N2c2ccc(Cl)c(Cl)c2)cc(OC)c1OC (stereo not given)
GI50 (UO-31): 33.3 µM (inactive)
GI50 (786-0): 70.6 µM (inactive)
GI50 (RXF 393): > 51.8 µM (inactive)
GI50 (UACC-257): > 70.6 µM (inactive)
GI50 (BT-549): 42.3 µM (inactive)
GI50 (SN12C): > 61.4 µM (inactive)
GI50 (NCI-H23): 48.9 µM (inactive)
GI50 (U-251): 38.7 µM (inactive)
GI50 (T47D): > 100 µM (inactive)
GI50 (Malme-3M): 42 µM (inactive)
GI50 (IGROV-1): 22.5 µM (inactive)
GI50 (MDA-MB-435): 7.29 µM (inactive)
GI50 (DU-145): 38.7 µM (inactive)
GI50 (CAKI-1): > 70.8 µM (inactive)
GI50 (M14): 28.8 µM (inactive)
GI50 (RPMI-8226): 46.3 µM (inactive)
GI50 (SK-MEL-28): 17.1 µM (inactive)
GI50 (A549): 53.8 µM (inactive)
GI50 (K562): 15.2 µM (inactive)
GI50 (MCF7): 22.3 µM (inactive)
GI50 (SK-OV-3): > 91 µM (inactive)
GI50 (HL-60): 15.7 µM (inactive)
GI50 (OVCAR-8): > 72.3 µM (inactive)
GI50 (OVCAR-3): > 57.1 µM (inactive)
GI50 (HCT-116): 19.3 µM (inactive)
GI50 (CCRF-CEM): 1.36 µM (inactive)
GI50 (NCI-H460): 30.7 µM (inactive)
GI50 (KM12): 18.1 µM (inactive)
GI50 (NCI-H522): 14.1 µM (inactive)
GI50 (TK-10): > 100 µM (inactive)
GI50 (HCT-15): 18.7 µM
GI50 (SNB-19): 59.2 µM (inactive)
GI50 (MDA-MB-231): > 50.8 µM (inactive)
GI50 (HCC 2998): 58.9 µM (inactive)
GI50 (SK-MEL-2): 12.6 µM (inactive)
GI50 (A498): > 42.4 µM (inactive)
GI50 (COLO 205): 46.6 µM (inactive)
GI50 (OVCAR-4): 60.8 µM (inactive)
GI50 (HOP-62): 47.3 µM (inactive)
GI50 (NCI-H226): 29.4 µM (inactive)
GI50 (UACC-62): 0.78 µM (active)
GI50 (SW-620): 31 µM (inactive)
GI50 (Hs-578T): 15 µM (inactive)
GI50 (MDA-N): 19.8 µM (inactive)
GI50 (MOLT-4): 28.8 µM (inactive)
GI50 (OVCAR-5): 10.1 µM (inactive)
GI50 (SF-268): 11.7 µM (inactive)
GI50 (EKVX): 23.1 µM (inactive)
GI50 (LOX IMVI): 19.2 µM (inactive)
GI50 (SF-295): 15.8 µM (inactive)
GI50 (SR): 26 µM (inactive)
GI50 (HOP-92): 32.9 µM (inactive)
GI50 (ACHN): 18.7 µM (inactive)
GI50 (NCI/ADR-RES): 32.6 µM (inactive)
GI50 (PC-3): 20.5 µM (inactive)
GI50 (SK-MEL-5): 30.1 µM (inactive)
GI50 (HT-29): 55.5 µM (inactive)

COC(=O)[C@]1(CCC(C)=O)C(=O)C=CN([C@H](C)c2ccccc2)[C@@H]1Cc1ccc(OC)c(OCc2ccccc2)c1I
GI50 (UO-31): 15.2 µM (inactive)
GI50 (786-0): 17.8 µM (inactive)
GI50 (RXF 393): 11.4 µM (inactive)
GI50 (UACC-257): 16.7 µM (inactive)
GI50 (SF-539): 16.6 µM (inactive)
GI50 (BT-549): 24.1 µM (inactive)
GI50 (SN12C): 18 µM (inactive)
GI50 (NCI-H23): 23.7 µM (inactive)
GI50 (U-251): 17.3 µM (inactive)
GI50 (T47D): 13.5 µM (inactive)
GI50 (IGROV-1): 12.6 µM (inactive)
GI50 (MDA-MB-435): 18.1 µM (inactive)
GI50 (DU-145): 16.7 µM (inactive)
GI50 (CAKI-1): 29.2 µM (inactive)
GI50 (M14): 15 µM (inactive)
GI50 (RPMI-8226): 14.7 µM (inactive)
GI50 (SK-MEL-28): 35.2 µM (inactive)
GI50 (A549): 20.4 µM (inactive)
GI50 (K562): 17.8 µM (inactive)
GI50 (MCF7): 19.2 µM (inactive)
GI50 (SK-OV-3): 35.4 µM (inactive)
GI50 (HL-60): 24 µM (inactive)
GI50 (OVCAR-8): 22 µM (inactive)
GI50 (OVCAR-3): 16.8 µM (inactive)
GI50 (HCT-116): 14 µM (inactive)
GI50 (CCRF-CEM): 25.4 µM (inactive)
GI50 (NCI-H460): 15.9 µM (inactive)
GI50 (KM12): 19.2 µM (inactive)
GI50 (NCI-H522): 20 µM (inactive)
GI50 (TK-10): 21.5 µM (inactive)
GI50 (HCT-15): 18.9 µM
GI50 (SNB-19): 22.5 µM (inactive)
GI50 (MDA-MB-231): 15.8 µM (inactive)
GI50 (HCC 2998): 14.2 µM (inactive)
GI50 (SK-MEL-2): 16.6 µM (inactive)
GI50 (A498): 22.5 µM (inactive)
GI50 (COLO 205): 17.9 µM (inactive)
GI50 (OVCAR-4): 19.3 µM (inactive)
GI50 (HOP-62): 22.8 µM (inactive)
GI50 (NCI-H226): 15.7 µM (inactive)
GI50 (UACC-62): 14.8 µM (inactive)
GI50 (SW-620): 32.9 µM (inactive)
GI50 (Hs-578T): 24 µM (inactive)
GI50 (MDA-N): 18.7 µM (inactive)
GI50 (MOLT-4): 12.4 µM (inactive)
GI50 (OVCAR-5): 22.7 µM (inactive)
GI50 (SF-268): 15.4 µM (inactive)
GI50 (EKVX): 29.6 µM (inactive)
GI50 (LOX IMVI): 17.2 µM (inactive)
GI50 (SF-295): 17.7 µM (inactive)
GI50 (SR): 15.7 µM (inactive)
GI50 (HOP-92): 6.08 µM (inactive)
GI50 (ACHN): 25.7 µM (inactive)
GI50 (NCI/ADR-RES): 29.2 µM (inactive)
GI50 (PC-3): 16.6 µM (inactive)
GI50 (SK-MEL-5): 13.9 µM (inactive)
GI50 (HT-29): 14.6 µM (inactive)

c1cc(-c2csc(-c3ccsc3)c2)cs1
GI50 (UO-31): > 100 µM (inactive)
GI50 (786-0): > 100 µM (inactive)
GI50 (RXF 393): > 100 µM (inactive)
GI50 (UACC-257): > 100 µM (inactive)
GI50 (SF-539): 36.5 µM (inactive)
GI50 (BT-549): > 100 µM (inactive)
GI50 (SN12C): > 100 µM (inactive)
GI50 (NCI-H23): > 100 µM (inactive)
GI50 (U-251): > 100 µM (inactive)
GI50 (T47D): > 100 µM (inactive)
GI50 (IGROV-1): > 100 µM (inactive)
GI50 (MDA-MB-435): > 100 µM (inactive)
GI50 (DU-145): > 100 µM (inactive)
GI50 (CAKI-1): > 100 µM (inactive)
GI50 (M14): 47 µM (inactive)
GI50 (RPMI-8226): > 100 µM (inactive)
GI50 (SK-MEL-28): > 100 µM (inactive)
GI50 (A549): > 100 µM (inactive)
GI50 (K562): > 100 µM (inactive)
GI50 (MCF7): 20.3 µM (inactive)
GI50 (SK-OV-3): > 100 µM (inactive)
GI50 (HL-60): > 100 µM (inactive)
GI50 (OVCAR-8): > 100 µM (inactive)
GI50 (OVCAR-3): 52.1 µM (inactive)
GI50 (HCT-116): > 100 µM (inactive)
GI50 (CCRF-CEM): > 100 µM (inactive)
GI50 (NCI-H460): > 100 µM (inactive)
GI50 (KM12): 63.4 µM (inactive)
GI50 (TK-10): > 100 µM (inactive)
GI50 (HCT-15): > 100 µM
GI50 (SNB-19): 53.1 µM (inactive)
GI50 (MDA-MB-231): > 100 µM (inactive)
GI50 (HCC 2998): 42.5 µM (inactive)
GI50 (A498): > 100 µM (inactive)
GI50 (COLO 205): > 100 µM (inactive)
GI50 (OVCAR-4): > 100 µM (inactive)
GI50 (HOP-62): 71.6 µM (inactive)
GI50 (NCI-H226): 13.5 µM (inactive)
GI50 (UACC-62): > 100 µM (inactive)
GI50 (SW-620): > 100 µM (inactive)
GI50 (Hs-578T): > 100 µM (inactive)
GI50 (MDA-N): > 100 µM (inactive)
GI50 (MOLT-4): > 100 µM (inactive)
GI50 (OVCAR-5): 88.9 µM (inactive)
GI50 (SF-268): > 100 µM (inactive)
GI50 (EKVX): > 100 µM (inactive)
GI50 (LOX IMVI): > 100 µM (inactive)
GI50 (SF-295): > 100 µM (inactive)
GI50 (SR): > 100 µM (inactive)
GI50 (HOP-92): > 100 µM (inactive)
GI50 (ACHN): > 100 µM (inactive)
GI50 (NCI/ADR-RES): > 100 µM (inactive)
GI50 (PC-3): 58.9 µM (inactive)
GI50 (SNB-75): > 100 µM (inactive)
GI50 (SK-MEL-5): > 100 µM (inactive)
GI50 (HT-29): > 100 µM (inactive)
